Data on 23 compounds can be found in patent publication US10538517B2, “Quinolone derivatives as FGFR inhibitors” (Principia Biopharma, Inc., priority 2015, dated 2020).

Structures are written as SMILES.

A word on the IC50: it is the concentration that inhibits the measured activity by half.

The first assay concerns SNU-16 cells. Description: Inhibition of FGFR2-dependent cell growth (Cell-titer Glo). The format is cell-based. Particulars: Homo sapiens, 72 hrs incubation, cell viability, read-out: SNU16 IC50 values. The procedure:
The cell-based effects of FGFR inhibitors were determined by measuring inhibition of FGFR-dependent cell line growth. The cell lines SNU-16 was used for these assays. […] Percent inhibition of cell growth was calculated as a percentage of untreated cell viability. The percent inhibition was plotted as a function of log compound concentration. The IC50 was then calculated for each compound using Prism software from GraphPad.
Regarding `CNc1ncc2cc(-c3cc(OC)cc(OC)c3)c(=O)n(CCc3ccc(NC(=O)C(C#N)=CC(C)(C)C)cc3)c2n1` [Cpd 8 (table 2), 2-cyano-N-(4-(2-(6-(3,5-dimethoxyphenyl)-2-(methylamino)-7-oxopyrido[2,3-d]pyrimidin-8(7H)-yl)ethyl)phenyl)-4,4-dimethylpent-2-enamide], the IC50 is 18.6 nM.

Take `CNc1ncc2cc(-c3cc(OC)cc(OC)c3)c(=O)n(CCc3ccc(NC(=O)C(C#N)=CC(C)(C)N)cc3)c2n1` [Cpd 9 (table 2), 4-amino-2-cyano-N-(4-(2-(6-(3,5-dimethoxyphenyl)-2-(methylamino)-7-oxopyrido[2,3-d]pyrimidin-8(7H)-yl)ethyl)phenyl)-4-methylpent-2-enamide]: the IC50 came out at 29.7 nM.

Staying with this assay, now noted: Homo sapiens, SNU-16, 72 h, 72 hrs incubation, cell viability, read-out: SNU16 IC50 values.
Consider `CNc1ncc2cc(-c3cc(OC)cc(OC)c3Cl)c(=O)n(CCN3CCN(C(=O)C(C#N)=CC(C)(C)C)CC3)c2n1` [Cpd 2 (table 1), 2-(4-(2-(6-(2-chloro-3,5-dimethoxyphenyl)-2-(methylamino)-7-oxopyrido[2,3-d]pyrimidin-8(7H)-yl)ethyl)piperazine-1-carbonyl)-4,4-dimethylpent-2-enenitrile], for which the IC50 was found to be 50.8 nM.

Regarding `CNc1ncc2cc(-c3c(Cl)c(OC)cc(OC)c3Cl)c(=O)n(CCN3CCN(C(=O)C(C#N)=CC(C)(C)C)CC3)c2n1` [Cpd 3 (table 1), 2-(4-(2-(6-(2,6-dichloro-3,5-dimethoxyphenyl)-2-(methylamino)-7-oxopyrido[2,3-d]pyrimidin-8(7H)-yl)ethyl)piperazine-1-carbonyl)-4,4-dimethylpent-2-enenitrile], the half-maximal inhibitory concentration (IC50) was found to be 34 nM. Take `CCN(CC)CCCCNc1ncc2cc(-c3c(Cl)c(OC)cc(OC)c3Cl)c(=O)n(CCc3ccc(NC(=O)C(C#N)=CC(C)C)cc3)c2n1` [Cpd 4 (table 2), 2-cyano-N-(4-(2-(6-(2,6-dichloro-3,5-dimethoxyphenyl)-2-((4-(diethylamino)butyl)amino)-7-oxopyrido[2,3-d]pyrimidin-8(7H)-yl)ethyl)phenyl)-4-methylpent-2-enamide]: the IC50 is 5.3 nM. Consider `CNc1ncc2cc(-c3cc(OC)cc(OC)c3Cl)c(=O)n(CCCN3CCN(C(=O)C(C#N)=CC(C)(C)C)CC3)c2n1` [Cpd 5 (table 1), 2-(4-(3-(6-(2-chloro-3,5-dimethoxyphenyl)-2-(methylamino)-7-oxopyrido[2,3-d]pyrimidin-8(7H)-yl)propyl)piperazine-1-carbonyl)-4,4-dimethylpent-2-enenitrile], for which the IC50 stood at 27.2 nM. Consider `CCN(CC)CCCCNc1ncc2cc(-c3c(Cl)c(OC)cc(OC)c3Cl)c(=O)n(Cc3cccc(NC(=O)C(C#N)=CC(C)C)c3)c2n1` [Cpd 5 (table 2), 2-cyano-N-(3-((6-(2,6-dichloro-3,5-dimethoxyphenyl)-2-((4-(diethylamino)butyl)amino)-7-oxopyrido[2,3-d]pyrimidin-8(7H)-yl)methyl)phenyl)-4-methylpent-2-enamide], for which the 50% inhibitory concentration (IC50) amounted to 1.5 nM. Consider `CNc1ncc2cc(-c3cc(OC)cc(OC)c3Cl)c(=O)n(CCN3C[C@@H]4CN(C(=O)C(C#N)=CC(C)(C)C)C[C@@H]4C3)c2n1` [Cpd 6 (table 1), 2-((3aR,6aS)-5-(2-(6-(2-chloro-3,5-dimethoxyphenyl)-2-(methylamino)-7-oxopyrido[2,3-d]pyrimidin-8(7H)-yl)ethyl)octahydropyrrolo[3,4-c]pyrrole-2-carbonyl)-4,4-dimethylpent-2-enenitrile], for which the IC50 turned out to be 649 nM. Regarding `CNc1ncc2cc(-c3cc(OC)cc(OC)c3)c(=O)n(CCc3cccc(NC(=O)C(C#N)=CC(C)(C)N)c3)c2n1` [Cpd 11 (table 2), 4-amino-2-cyano-N-(3-(2-(6-(3,5-dimethoxyphenyl)-2-(methylamino)-7-oxopyrido[2,3-d]pyrimidin-8(7H)-yl)ethyl)phenyl)-4-methylpent-2-enamide], the IC50 came out at 73.4 nM. For `CNc1ncc2cc(-c3cc(OC)cc(OC)c3Cl)c(=O)n(CCc3cccc(NC(=O)C(C#N)=CC(C)(C)C)n3)c2n1` [Cpd 16 (table 2), N-(6-(2-(6-(2-chloro-3,5-dimethoxyphenyl)-2-(methylamino)-7-oxopyrido[2,3-d]pyrimidin-8(7H)-yl)ethyl)pyridin-2-yl)-2-cyano-4,4-dimethylpent-2-enamide], the 50% inhibitory concentration (IC50) worked out at 43.9 nM. Regarding `CNc1ncc2cc(-c3cc(OC)cc(OC)c3Cl)c(=O)n(CCc3cccc(NC(=O)C(C#N)=CC(C)(C)N)n3)c2n1` [Cpd 17 (table 2), 4-amino-N-(6-(2-(6-(2-chloro-3,5-dimethoxyphenyl)-2-(methylamino)-7-oxopyrido[2,3-d]pyrimidin-8(7H)-yl)ethyl)pyridin-2-yl)-2-cyano-4-methylpent-2-enamide], the half-maximal inhibitory concentration (IC50) turned out to be 8.1 nM. For the compound `CNc1ncc2cc(-c3cc(OC)cc(OC)c3Cl)c(=O)n(CCc3ccnc(NC(=O)C(C#N)=CC(C)(C)N)c3)c2n1` [Cpd 20 (table 2), 4-amino-N-(4-(2-(6-(2-chloro-3,5-dimethoxyphenyl)-2-(methylamino)-7-oxopyrido[2,3-d]pyrimidin-8(7H)-yl)ethyl)pyridin-2-yl)-2-cyano-4-methylpent-2-enamide], the IC50 was 91.4 nM. In the case of `CNc1ncc2cc(-c3cc(OC)cc(OC)c3Cl)c(=O)n(CCc3ccc(NC(=O)C(C#N)=CC(C)(C)N)nc3)c2n1` [Cpd 21 (table 2), 4-amino-N-(5-(2-(6-(2-chloro-3,5-dimethoxyphenyl)-2-(methylamino)-7-oxopyrido[2,3-d]pyrimidin-8(7H)-yl)ethyl)pyridin-2-yl)-2-cyano-4-methylpent-2-enamide], the 50% inhibitory concentration (IC50) was determined as 33.1 nM.

As to `CNc1ncc2cc(-c3cc(OC)cc(OC)c3Cl)c(=O)n(CCc3cccc(N(C)C(=O)C(C#N)=CC(C)(C)N)c3)c2n1` [Cpd 26 (table 2), 4-amino-N-(3-(2-(6-(2-chloro-3,5-dimethoxyphenyl)-2-(methylamino)-7-oxopyrido[2,3-d]pyrimidin-8(7H)-yl)ethyl)phenyl)-2-cyano-N,4-dimethylpent-2-enamide], the IC50 worked out at 56 nM. Consider `CCOC(C)(C)C=C(C#N)C(=O)Nc1ccc(CCn2c(=O)c(-c3cc(OC)cc(OC)c3Cl)cc3cnc(NC)nc32)cc1` [Cpd 27 (table 2), N-(4-(2-(6-(2-chloro-3,5-dimethoxyphenyl)-2-(methylamino)-7-oxopyrido[2,3-d]pyrimidin-8(7H)-yl)ethyl)phenyl)-2-cyano-4-ethoxy-4-methylpent-2-enamide], for which the IC50 is 4.2 nM.

For `CNc1ncc2cc(-c3cc(OC)cc(OC)c3Cl)c(=O)n(CCc3ccc(NC(=O)C(C#N)=CC(C)(C)N(C)C4COC4)cc3)c2n1` [Cpd 29 (table 2), N-(4-(2-(6-(2-chloro-3,5-dimethoxyphenyl)-2-(methylamino)-7-oxopyrido[2,3-d]pyrimidin-8(7H)-yl)ethyl)phenyl)-2-cyano-4-methyl-4-(methyl(oxetan-3-yl)amino)pent-2-enamide], the IC50 worked out at 1.4 nM.

`CNc1ncc2cc(-c3cc(OC)cc(OC)c3Cl)c(=O)n(CCc3cccc(N(C)C(=O)C(C#N)=CC(C)(C)N(C)C)c3)c2n1` [Cpd 39 (table 2), N-(3-(2-(6-(2-chloro-3,5-dimethoxyphenyl)-2-(methylamino)-7-oxopyrido[2,3-d]pyrimidin-8(7H)-yl)ethyl)phenyl)-2-cyano-4-(dimethylamino)-N,4-dimethylpent-2-enamide]: the IC50 worked out at 40.2 nM. With `CNc1ncc2cc(-c3cc(OC)cc(OC)c3Cl)c(=O)n(CCc3cccc(NC(=O)C(C#N)=CC(C)(C)N(C)C4COC4)c3)c2n1` [Cpd 43 (table 2), N-(3-(2-(6-(2-chloro-3,5-dimethoxyphenyl)-2-(methylamino)-7-oxopyrido[2,3-d]pyrimidin-8(7H)-yl)ethyl)phenyl)-2-cyano-4-methyl-4-(methyl(oxetan-3-yl)amino)pent-2-enamide], the IC50 was determined as 2.4 nM. Turning to `COc1cc(OC)c(Cl)c(-c2cc3cnc(N)nc3n(CCc3cccc(NC(=O)C(C#N)=CC(C)(C)C)c3)c2=O)c1` [Cpd 50 (table 2), N-(3-(2-(2-amino-6-(2-chloro-3,5-dimethoxyphenyl)-7-oxopyrido[2,3-d]pyrimidin-8(7H)-yl)ethyl)phenyl)-2-cyano-4,4-dimethylpent-2-enamide], the IC50 stood at 4.6 nM. Regarding `COc1cc(OC)c(Cl)c(-c2cc3cnc(NCC(C)(C)O)nc3n(CCc3cccc(NC(=O)C(C#N)=CC(C)(C)C)c3)c2=O)c1` [Cpd 52 (table 2), N-(3-(2-(6-(2-chloro-3,5-dimethoxyphenyl)-2-((2-hydroxy-2-methylpropyl)amino)-7-oxopyrido[2,3-d]pyrimidin-8(7H)-yl)ethyl)phenyl)-2-cyano-4,4-dimethylpent-2-enamide], the IC50 stood at 15.7 nM. On to `CNc1ncc2cc(-c3cc(OC)cc(OC)c3Cl)c(=O)n(CCc3cccc(NC(=O)C(C#N)=CC(C)(C)N4CCC(O)CC4)c3)c2n1` [Cpd 53 (table 2), N-(3-(2-(6-(2-chloro-3,5-dimethoxyphenyl)-2-(methylamino)-7-oxopyrido[2,3-d]pyrimidin-8(7H)-yl)ethyl)phenyl)-2-cyano-4-(4-hydroxypiperidin-1-yl)-4-methylpent-2-enamide], for which the IC50 amounted to 5.1 nM.

`CNc1ncc2cc(-c3cc(OC)cc(OC)c3Cl)c(=O)n(CCc3ccc(NC(=O)C(C#N)=CC(C)(C)N4C[C@@H](C)N(C)[C@@H](C)C4)cc3)c2n1` [Cpd 60 (table 2), N-(4-(2-(6-(2-chloro-3,5-dimethoxyphenyl)-2-(methylamino)-7-oxopyrido[2,3-d]pyrimidin-8(7H)-yl)ethyl)phenyl)-2-cyano-4-methyl-4-((3S,5R)-3,4,5-trimethylpiperazin-1-yl)pent-2-enamide]: the IC50 was found to be 5.6 nM.

As to `CNc1ncc2cc(-c3cc(OC)cc(OC)c3Cl)c(=O)n(CCc3ccc(NC(=O)C(C#N)=CC(C)(C)N4CCN(C5COC5)CC4)cc3)c2n1` [Cpd 61 (table 2), N-(4-(2-(6-(2-chloro-3,5-dimethoxyphenyl)-2-(methylamino)-7-oxopyrido[2,3-d]pyrimidin-8(7H)-yl)ethyl)phenyl)-2-cyano-4-methyl-4-(4-(oxetan-3-yl)piperazin-1-yl)pent-2-enamide], the IC50 was 4.3 nM.
